Experimental data taken from PubChem BioAssay (NCI).
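Following 48 hours of exposure in 96-well plates, responses at five concentrations were used to interpolate endpoints linearly. GI50 is the concentration that inhibits growth by half. TGI is the concentration that stops growth completely.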

What was measured:
Assay in all cases: DTP human tumour cell line panel, 48 h
[1] = system: 786-0 renal
[2] = system: A498 renal
[3] = system: A549 NSCLC
[4] = system: ACHN renal
[5] = system: BT-549 breast
[6] = system: CAKI-1 renal
[7] = system: CCRF-CEM leukemia
[8] = system: COLO 205 colon
[9] = system: DU-145 prostate
[10] = system: EKVX NSCLC
[11] = system: HCC-2998 colon
[12] = system: HCT-116 colon
[13] = system: HCT-15 colon
[14] = system: HL-60(TB) leukemia
[15] = system: HOP-62 NSCLC
[16] = system: HOP-92 NSCLC
[17] = system: HS 578T breast
[18] = system: HT29 colon
[19] = system: IGROV1 ovarian
[20] = system: K-562 leukemia
[21] = system: KM12 colon
[22] = system: LOX IMVI melanoma
[23] = system: M14 melanoma
[24] = system: MALME-3M melanoma
[25] = system: MCF7 breast
[26] = system: MDA-MB-231 breast
[27] = system: MDA-MB-435
[28] = system: MOLT-4 leukemia
[29] = system: NCI-H226 lung
[30] = system: NCI-H23 lung
[31] = system: NCI-H460 lung
[32] = system: NCI-H522 lung
[33] = system: NCI/ADR-RES ovarian
[34] = system: OVCAR-3 ovarian
[35] = system: OVCAR-4 ovarian
[36] = system: OVCAR-5 ovarian
[37] = system: OVCAR-8 ovarian
[38] = system: RPMI-8226 leukemia
[39] = system: SF-268 CNS
[40] = system: SF-295 CNS
[41] = system: SF-539 CNS
[42] = system: SK-MEL-2 melanoma
[43] = system: SK-MEL-28 melanoma
[44] = system: SK-MEL-5 melanoma
[45] = system: SK-OV-3 ovarian
[46] = system: SNB-19 CNS
[47] = system: SNB-75 CNS
[48] = system: SR leukemia
[49] = system: SW-620 colon
[50] = system: T-47D breast
[51] = system: TK-10 renal
[52] = system: U251 CNS
[53] = system: UACC-257 melanoma
[54] = system: UACC-62 melanoma
[55] = system: UO-31 renal
[56] = system: PC-3 prostate
[57] = system: RXF 393 renal
[58] = system: SN12C renal

O=C1c2cccc3cccc(c23)C(=O)N1CCCCN1CCN(CCCCOc2ccc(-c3nc4ccc(N5CCOCC5)cc4[nH]3)cc2)CC1
GI50 [1]: > 100 µM | TGI [1]: > 100 µM | GI50 [2]: > 100 µM | TGI [2]: > 100 µM | GI50 [3]: > 100 µM | TGI [3]: > 100 µM | GI50 [4]: 3.19 µM | TGI [4]: > 100 µM | GI50 [5]: 35.4 µM | TGI [5]: > 100 µM | GI50 [6]: > 100 µM | TGI [6]: > 100 µM | GI50 [7]: > 100 µM | TGI [7]: > 100 µM | GI50 [8]: > 100 µM | TGI [8]: > 100 µM | GI50 [9]: > 100 µM | TGI [9]: > 100 µM | GI50 [10]: > 100 µM | TGI [10]: > 100 µM | GI50 [11]: > 100 µM | TGI [11]: > 100 µM | GI50 [12]: > 100 µM | TGI [12]: > 100 µM | GI50 [13]: 56.2 µM | TGI [13]: > 100 µM | GI50 [14]: 4.62 µM | TGI [14]: > 100 µM | GI50 [15]: > 100 µM | TGI [15]: > 100 µM | GI50 [16]: > 100 µM | TGI [16]: > 100 µM | GI50 [17]: > 100 µM | TGI [17]: > 100 µM | GI50 [18]: > 100 µM | TGI [18]: > 100 µM | GI50 [19]: 61.9 µM | TGI [19]: > 100 µM | GI50 [20]: 4.35 µM | TGI [20]: > 100 µM | GI50 [21]: > 100 µM | TGI [21]: > 100 µM | GI50 [22]: 9.78 µM | TGI [22]: > 100 µM | GI50 [23]: > 100 µM | TGI [23]: > 100 µM | GI50 [24]: 29.5 µM | TGI [24]: > 100 µM | GI50 [25]: > 100 µM | TGI [25]: > 100 µM | GI50 [26]: 9.16 µM | TGI [26]: > 100 µM | GI50 [27]: > 100 µM | TGI [27]: > 100 µM | GI50 [28]: 3.76 µM | TGI [28]: > 100 µM | GI50 [29]: > 100 µM | TGI [29]: > 100 µM | GI50 [30]: > 100 µM | TGI [30]: > 100 µM | GI50 [31]: > 100 µM | TGI [31]: > 100 µM | GI50 [32]: > 100 µM | TGI [32]: > 100 µM | GI50 [33]: > 100 µM | TGI [33]: > 100 µM | GI50 [34]: 12.1 µM | TGI [34]: > 100 µM | GI50 [35]: > 100 µM | TGI [35]: > 100 µM | GI50 [36]: > 100 µM | TGI [36]: > 100 µM | GI50 [37]: 8.8 µM | TGI [37]: > 100 µM | GI50 [38]: > 100 µM | TGI [38]: > 100 µM | GI50 [39]: > 100 µM | TGI [39]: > 100 µM | GI50 [40]: > 100 µM | TGI [40]: > 100 µM | GI50 [41]: > 100 µM | TGI [41]: > 100 µM | GI50 [42]: > 100 µM | TGI [42]: > 100 µM | GI50 [43]: 66 µM | TGI [43]: > 100 µM | GI50 [44]: 9.1 µM | TGI [44]: > 100 µM | GI50 [45]: > 100 µM | TGI [45]: > 100 µM | GI50 [46]: > 100 µM | TGI [46]: > 100 µM | GI50 [47]: > 100 µM | TGI [47]: > 100 µM | GI50 [48]: 1.68 µM | TGI [48]: 3.9 µM | GI50 [49]: > 100 µM | TGI [49]: > 100 µM | GI50 [50]: 15.3 µM | TGI [50]: > 100 µM | GI50 [51]: > 100 µM | TGI [51]: > 100 µM | GI50 [52]: 7.93 µM | TGI [52]: > 100 µM | GI50 [53]: 15 µM | TGI [53]: > 100 µM | GI50 [54]: > 100 µM | TGI [54]: > 100 µM | GI50 [55]: > 100 µM | TGI [55]: > 100 µM

COc1cc(C(=O)/C=C/c2c(-c3ccc(F)cc3)nc3ncccn23)cc(OC)c1OC
GI50 [1]: 2.76 µM | TGI [1]: 9.6 µM | GI50 [2]: 2.2 µM | TGI [2]: 7.58 µM | GI50 [3]: 3.34 µM | TGI [3]: > 100 µM | GI50 [4]: 2.21 µM | TGI [4]: 6.45 µM | GI50 [5]: 1.8 µM | TGI [5]: 19.4 µM | GI50 [7]: 4.05 µM | TGI [7]: > 100 µM | GI50 [9]: 1.63 µM | TGI [9]: 6.11 µM | GI50 [10]: 2.71 µM | TGI [10]: > 100 µM | GI50 [11]: 1.77 µM | TGI [11]: 3.42 µM | GI50 [12]: 1.53 µM | TGI [12]: 4.45 µM | GI50 [14]: 3.33 µM | TGI [14]: > 100 µM | GI50 [15]: 3.12 µM | TGI [15]: 24.5 µM | GI50 [16]: 1.77 µM | TGI [16]: 92.9 µM | GI50 [17]: 2.01 µM | TGI [17]: 11.2 µM | GI50 [18]: 2.52 µM | TGI [18]: 6.25 µM | GI50 [19]: 1.93 µM | TGI [19]: 9.53 µM | GI50 [20]: 3.03 µM | TGI [20]: > 100 µM | GI50 [21]: 1.69 µM | TGI [21]: 4.37 µM | GI50 [24]: 2.84 µM | TGI [24]: 58 µM | GI50 [25]: 1.61 µM | TGI [25]: 15.6 µM | GI50 [26]: 2.99 µM | TGI [26]: 16.5 µM | GI50 [27]: 2.36 µM | TGI [27]: 96.6 µM | GI50 [28]: 3.75 µM | TGI [28]: > 100 µM | GI50 [29]: 3.08 µM | TGI [29]: 18.9 µM | GI50 [30]: 1.58 µM | TGI [30]: 5.79 µM | GI50 [32]: 2.87 µM | TGI [32]: 10.6 µM | GI50 [33]: 1.58 µM | TGI [33]: 5.11 µM | GI50 [34]: 1.4 µM | TGI [34]: 3.64 µM | GI50 [35]: 2.93 µM | TGI [35]: > 100 µM | GI50 [36]: 2.46 µM | TGI [36]: 7.37 µM | GI50 [37]: 2.69 µM | TGI [37]: > 100 µM | GI50 [56]: 4.35 µM | TGI [56]: > 100 µM | GI50 [38]: 2.56 µM | TGI [38]: > 100 µM | GI50 [57]: 1.44 µM | TGI [57]: 4.09 µM | GI50 [39]: 1.9 µM | TGI [39]: 14.1 µM | GI50 [40]: 2.43 µM | TGI [40]: 6.53 µM | GI50 [41]: 1.55 µM | TGI [41]: 3.77 µM | GI50 [42]: 2.38 µM | TGI [42]: 6.97 µM | GI50 [43]: 3.68 µM | TGI [43]: > 100 µM | GI50 [45]: 2.64 µM | TGI [45]: 6.7 µM | GI50 [58]: 2.26 µM | TGI [58]: 36.1 µM | GI50 [46]: 3.12 µM | TGI [46]: 15.5 µM | GI50 [47]: 2.39 µM | TGI [47]: 9.37 µM | GI50 [48]: 2.28 µM | TGI [48]: > 100 µM | GI50 [50]: 2.09 µM | TGI [50]: 9.22 µM | GI50 [51]: 3.25 µM | TGI [51]: 22.6 µM | GI50 [52]: 1.68 µM | TGI [52]: 12.9 µM | GI50 [53]: 3.73 µM | TGI [53]: > 100 µM | GI50 [55]: 0.73 µM | TGI [55]: > 100 µM
